Legend:
[1] = test system: polyfunctional proliferating CD8 T cells (CFSE low, IFNg+, TNFa+); experiment: Induction of HIV-specific polyfunctional CD8 T cells ex vivo (Example 216); format: cell-based, human; settings: PBMCs from 5 HIV-infected donors, HIV peptide pools
Method: PBMCs from 5 HIV-infected donors (Donor IDs 178-180 and 182-183) on suppressive cART were isolated, as described previously, and stained with carboxyfluorescein succinimiyl ester (CFSE). PBMC cultures were treated with DMSO or the compound of Example 49 (GS-9620) at 0.1 or 1 uM. Cultures were incubated at 37° C. for 2 days and treated with 500 ng/ml 15-mer peptide pools derived from overlapping HIV gag, pol, nef, and env consensus peptides (JPT Peptide Technologies GmbH). Cells were incubated at 37° C. for 8 days. Cultures were split into duplicate sets and stained in dulbecco's phosphate buffered saline (DPBS) with LIVE/DEAD Fixable Aqua Dead Cell Stain (Life Technologies). The immune recall response was performed as follows. One culture set was treated with the same HIV peptide pools and the other set was treated with 500 ng/ml CMV/EBV/Flu/Tetanus (CEFT) peptides (JPT Peptide Technologies GmbH). After one hour at 37° C., cultures were treated with 0.7 μl GolgiStop (BD Biosciences) containing monensin and 1 μl GolgiPlug (BD Biosciences) containing brefeldin A. Cultures were incubated for 3 additional hours at 37° C. and stained for 15 minutes with anti-CD4-v450, anti-CD3-AlexaFlour 700, and anti CD8-APC-H7 (BD Biosciences). Cultures were fixed with IC Fixation Buffer (eBioscience) and permeabilized with Permeabilization Buffer (eBioscience). […]

[2] = test system: peripheral NK cells (CD3-CD8+ NKG2A+CD16+CD56+); experiment: Peripheral lymphocyte activation, CD69 by flow cytometry: NK cells (Example 206); format: in vivo, rhesus macaque
Excerpt: During the course of treatment with the compound of Example 4 as described in Example 204, peripheral lymphocyte activation was monitored in the groups dosed with the compound of Example 4 or the dosing vehicle of Example 201 (placebo), by measuring the expression of the early activation marker CD69 on various lymphocyte subsets by flow cytometry methodology. This methodology was used to quantify the percentage of immune cell subsets expressing the early activation marker. Standard data acquisition techniques were employed on a flow cytometer and by the use of antibodies conjugated to fluorescent molecules where the antibodies recognize rhesus macaque cell surface proteins on various immune cell subsets. In animals dosed with the compound of Example 4, whole blood samples were collected for each dose at various time points both at pre- and post-administration of compound. Total PBMCs were stained in the whole blood samples using antibodies that were chosen to be reactive to rhesus CD3, CD4, CD8, NKG2A, CD16 and CD56, each conjugated to different fluorescent probes to delineate CD3+CD4+CD8− lymphocytes, CD3+CD4−CD8+ lymphocytes and CD3-CD8+ NKG2A+CD16+ CD56+ NK cells. The flow cytometry data presented herein are from animals treated with the compound of Example 4.

[3] = test system: simian immunodeficiency virus (SIV); experiment: TLR7 modulating compound in SIV+ viremic rhesus at chronic set point: plasma viral load by quantitative RT-PCR (Example 203); format: in vivo, rhesus macaques
Method: Five chronically infected, SIV^+ rhesus macaques were either treated with the compound of Example 4 (n=3 animals) or with dosing vehicle (placebo, n=2 animals) in a multiple-dose, dose escalation, placebo controlled study. […] The animals were not administered combination antiretroviral therapy during any part of the study.
The animals were dosed once weekly by oral gavage (via nasogastric tube) with either the compound of Example 4 or placebo. Three animals were administered the compound of Example 4, prepared as described in Example 201. The first week, 1 mL/kg of the 0.1 mg/mL formulation was administered, corresponding to a dose of 0.1 mg/kg. The second week, 1 mL/kg of the 0.2 mg/mL formulation was administered, corresponding to a dose of 0.2 mg/kg. On weeks three through five, 1 mL/kg of the 0.3 mg/mL formulation was administered, corresponding to a dose of 0.3 mg/kg. Each week, two animals (placebo group) were administered the dosing vehicle as described in Example 201 at 1 mL/kg.
Each formulation of Example 201 or dosing vehicle only (placebo) was used fresh and thawed to room temperature prior to dosing. Plasma viral loads (expressed as SIV RNA copies per mL of plasma) were determined by quantitative RT-PCR of the SIV RNA measuring the gag gene transcripts at various times throughout the study for animals administered the compound of Example 4 and the placebo animals. […]

SMILES | increase of mean level of polyfunctional proliferating CD8 T cells compared to DMSO ([1]; 0.1 uM, p<0.05) | increase of mean level of polyfunctional proliferating CD8 T cells compared to DMSO ([1]; 1 uM, p<0.005) | mean maximum percent change in CD69 expression on NK cells ([2]; dose 0.1 mg/kg, any time point (rise by 24 to 72 hours post-dose), pre-dose range 89-95%) | mean maximum percent change in CD69 expression on NK cells ([2]; dose 0.2 mg/kg, pre-dose range 83-95%) | mean maximum percent change in CD69 expression on NK cells ([2]; first dose of 0.3 mg/kg, pre-dose range 84-95%) | mean maximum percent change in CD69 expression on NK cells ([2]; second dose of 0.3 mg/kg, pre-dose range 82-97%) | plasma viral load ([3]; animal with the lowest chronic set point, undetectable for at least 100 days following the last dose (FIG. 1)) | sustained decrease in viral load set point compared to pre-dose ([3]; second animal, log10 RNA copies, maintained at least 100 days following the last dose (FIG. 2))
CCCCOc1nc(N)c2c(n1)N(Cc1cccc(CN3CCCC3)c1)CC(=O)N2 [Example 49] | 9.0 fold | 7.5 fold | – | – | – | – | – | –
CCCCOc1nc(N)c2c(n1)N(Cc1ccc(CN3CCCC3)cc1)CC(=O)N2 [Example 4] | – | – | 6.5% | 9.5% | 8.3% | 8.7% | < 50 RNA copies/mL | approximately 1 log order
